Measured values reported in patent publication US10590166B2, “Peptides useable for treating cancer” (Allegro Pharmaceuticals, LLC, priority 2009, dated 2020).

What was measured:
[1] = system: New Zealand Rabbits; test: Ocular toxicity of intravitreal Compound 1 with and without urea (Table A); assay type: in vivo; conditions: single intravitreal injection, 24 hour follow up, 8 eyes per group
[2] = system: human umbilical vein endothelial cells (HUVEC); test: wound-healing assay with HUVEC on fibronectin coated surface; assay type: cell-based
Protocol: To test the anti-adhesive properties of RGCysteic Acid peptides in vitro, a wound-healing assay was performed with human umbilical vein endothelial cells (HUVEC). HUVEC were seeded and allowed to grow to a confluent monolayer on a fibronectin coated surface. A wound (a scratch rift) was created by dragging a small pipette tip across the HUVEC monolayer. The cells were then incubated in fresh growth medium containing the RGCysteic Acid peptide (Compound 1; 10 mM), and the wound area was imaged in five different fields at various time points (0, 4, 8, 12, 16, 20, 24 hours) to determine the kinetics of wound closure. The level of wound closure was quantified by determining the fraction of the original wound area that was re-occupied by HUVEC through cellular adhesion, migration and proliferation.
In control studies, the following peptides were used in place of RGCysteic Acid (Compound 1): cyclic-RGD peptide (1 mM), positive control) and RGE peptide (1 mM, negative control).
The results are shown as a percentage of the original area. The error bars correspond to the standard deviation in wound size across 2-6 independent trials.

[3] = system: rho/VEGF mice; test: Subretinal neovascularization in transgenic rho/VEGF mice expressing human VEGF; assay type: in vivo; conditions: 10 μg, single intraocular injection, seven days post-dose, 3 animals
Protocol: Transgenic mice in which the rhodopsin promoter drives expression of human VEGF in photoreceptors (rho/VEGF mice) were randomized into separate treatment groups and studies were performed to provide the following comparisons:
Pretreatment measurements of the area of subretinal neovascularization were made on each animal using image analysis by a masked observer. Each animal received its designated treatment in a single intraocular injection. Seven days post-dose, measurements of the area of subretinal neovascularization were again made and compared to the pre-dose measurements to determine the change in subretinal neovascularization area. Also, the animals were sacrificed and the retinas were dissected, immunostained with GSA lectin and examined by fluorescence microscopy.

## NC(N)=O [12% Urea solution, Urea, reference compound]
[1]
  Total PVD: 0% Total PVD
  Vitreous liquefaction: No liquefaction

## CC(C)[C@H]1C(=O)N[C@@H](CCCN=C(N)N)C(=O)NCC(=O)N[C@@H](CC(=O)O)C(=O)N[C@H](Cc2ccccc2)C(=O)N1C [Cyclic RGD, N-methylated cyclic-RGDf-N(Me)V, reference compound]
[2]; HUVEC wound healing model, in 12 hours
  inhibition of cell adhesion: 40%
[2]; after 24 hours, Compound 1 10 mM, control peptides 1 mM
  inhibition of HUVEC wound healing: 45%

B1: ranibizumab: recombinant humanized IgG1 kappa isotype monoclonal antibody fragment (antibody, chains of the INN, looked up, V domains shown)
VH: EVQLVESGGGLVQPGGSLRLSCAASGYDFTHYGMNWVRQAPGKGLEWVGWINTYTGEPTYAADFKRRFTFSLDTSKSTAYLQMNSLRAEDTAVYYCAKYPYYYGTSHWYFDVWGQGTLVTVSS
VL: DIQLTQSPSSLSASVGDRVTITCSASQDISNYLNWYQQKPGKAPKVLIYFTSSLHSGVPSRFSGSGSGTDFTLTISSLQPEDFATYYCQQYSTVPWTFGQGTKVEIK
modifications: Fab
notes: recombinant humanized IgG1 kappa isotype monoclonal antibody fragment
[3]
  greater reduction in subretinal neovascularization area than control animals (Phosphate Buffered Saline): 38.96%
